Measurements published in paper PMC6689975, “Novel Cell Wall Antifungals Reveal a Special Synergistic Activity in pbr1 Mutants Resistant to the Glucan Synthesis Antifungals Papulacandins and Echinocandins” (Frontiers in Microbiology, 2019).
≈ marks a conversion by molar mass, not a printed value. Where two headings read alike, the source gives them in different places.

Experiments:
Test in all cases: microbe, parasite or virus in culture
C. albicans wild-type = tested on: C. albicans wild-type; parameters: species or system whole yeast cells; micro-culture broth dilution MIC in YES at 30 C, turbidity, complete growth inhibition; conditions: Candida albicans, YES medium
Experimental: (§1) Standard YEPD (Yeast Extract, Peptone, Dextrose) ([Sherman, 1990]), YEPD+S (YEPD with 1.2M sorbitol), YES (Yeast Extract, Dextrose and Supplements of Adenine, Histidine, Leucine, Uracil and Lysine) ([Alfa et al., 1993]) and YES+S (YES with 1.2 M sorbitol) ([Ribas et al., 1991]; [Ishiguro et al., 1997]), media were used for determination of MIC values of the tested compounds. A stock solution of 10 mg/ml of each tested compounds was prepared in DMSO and serial dilutions in DMSO were prepared. The final concentration of DMSO was 2% in the YEPD medium. […] The serial dilutions of compounds were dispensed into test tubes with 1 ml of YEPD or YEPD+S to make final concentrations of 200, 100, 50, 25, 12.5, 6.26, 3.125, 1.6, 0.8 and 0.4 μg/ml. The tested yeast strains were previously grown in YEPD, YEPD+S, YES or YES+S agar plates at 30°C for 48 h. Micro-culture assays of large numbers of samples were analyzed as described) ([Martins et al., 2011]). Essentially early log-phase cells were grown in YEPD, YEPD+S, YES or YES+S (1.2 M sorbitol) medium at 30°C, and diluted to cell density of 4 X 10^6 cells/ml in YEPD, YEPD+S, YES or YES+S medium and aliquots of 100 μl were dispensed into each small test tube (3 ml test tube size). Then, another 100 μl of YEPD, YEPD+S, YES or YES+S with the corresponding dilution of each compound at 2X concentration (4% DMSO) was added. The final volume was 200 μl, with the cells diluted to of 2 X 10^6 cells/ml and each compound diluted to 1X final concentration, containing increasing concentrations of antifungal (0, 1, 2, 5, 10, 20, 50, 100 and 200 μg/ml) or an equivalent volume of solvent (2% DMSO). The cells were grown at 30°C in an orbital roller and turbidity was analyzed after 24 and 48 h of incubation. The MIC was determined as the minimal concentration of tested compound that produced complete cell growth inhibition and kept the medium clear. The MIC values were calculated from at least three independent experiments. Next, the first generation of isochromanones (1E-16E) was also screened in YES medium (Table 5) and exerted a weaker antifungal potency than in YEPD medium and also than the second family of isochromanones in YES medium (17E-30E) (Table 6). The strains are partly different from the previously mentioned ones (Tables 5, 6) analyzing two wild type C. albicans strains because they behaved similarly in YEPD. It is remarkable that there was no effect against either the C. albicans, the S. cerevisiae, or the S. pombe wild-type strains, except with 30E.

[1] = tested on: T1, S. cerevisiae wild-type CVX12-3A; parameters: species or system whole yeast cells; micro-culture broth dilution MIC in YES at 30 C, turbidity, complete growth inhibition; conditions: Saccharomyces cerevisiae; YES medium
T1 construct: CVX12-3A
Experimental: as §1

[2] = tested on: T2, S. pombe wild-type 972 h-; parameters: species or system whole yeast cells; micro-culture broth dilution MIC in YES at 30 C, turbidity, complete growth inhibition; conditions: Schizosaccharomyces pombe; YES medium
T2 construct: 972 h-
Experimental: as §1

[3] = tested on: Candida albicans C. a.^f (Tables 5, 6); parameters: species or system yeast; micro tube dilution MIC in YES (± 1.2 M sorbitol), complete growth inhibition by turbidity; conditions: 48 h
Experimental: as §1, with “experiments.” for “experiments. Next, the first generation of isochromanones (1E-16E) was also screened in YES medium (Table 5) and exerted a weaker antifungal potency than in YEPD medium and also than the second family of isochromanones in YES medium (17E-30E) (Table 6). The strains are partly different from the previously mentioned ones (Tables 5, 6) analyzing two wild type C. albicans strains because they behaved similarly in YEPD. It is remarkable that there was no effect against either the C. albicans, the S. cerevisiae, or the S. pombe wild-type strains, except with 30E.”

[4] = tested on: Candida albicans C. a.^g (Table 6); parameters: species or system yeast; micro tube dilution MIC in YES (± 1.2 M sorbitol), complete growth inhibition by turbidity; conditions: 48 h
Experimental: as §1, with “experiments.” for “experiments. Next, the first generation of isochromanones (1E-16E) was also screened in YES medium (Table 5) and exerted a weaker antifungal potency than in YEPD medium and also than the second family of isochromanones in YES medium (17E-30E) (Table 6). The strains are partly different from the previously mentioned ones (Tables 5, 6) analyzing two wild type C. albicans strains because they behaved similarly in YEPD. It is remarkable that there was no effect against either the C. albicans, the S. cerevisiae, or the S. pombe wild-type strains, except with 30E.”

[5] = tested on: T3, Saccharomyces cerevisiae S. c.^d (wild-type CVX12-3A); parameters: species or system yeast; micro tube dilution MIC in YES (± 1.2 M sorbitol), complete growth inhibition by turbidity; conditions: 48 h
T3 construct: CVX12-3A
Experimental: as §1, with “experiments.” for “experiments. Next, the first generation of isochromanones (1E-16E) was also screened in YES medium (Table 5) and exerted a weaker antifungal potency than in YEPD medium and also than the second family of isochromanones in YES medium (17E-30E) (Table 6). The strains are partly different from the previously mentioned ones (Tables 5, 6) analyzing two wild type C. albicans strains because they behaved similarly in YEPD. It is remarkable that there was no effect against either the C. albicans, the S. cerevisiae, or the S. pombe wild-type strains, except with 30E.”

[6] = tested on: T4, Schizosaccharomyces pombe S. p.^a (wild-type 972 h-); parameters: species or system yeast; micro tube dilution MIC in YES (± 1.2 M sorbitol), complete growth inhibition by turbidity; conditions: 48 h
T4 construct: 972 h-
Experimental: as §1, with “experiments.” for “experiments. Next, the first generation of isochromanones (1E-16E) was also screened in YES medium (Table 5) and exerted a weaker antifungal potency than in YEPD medium and also than the second family of isochromanones in YES medium (17E-30E) (Table 6). The strains are partly different from the previously mentioned ones (Tables 5, 6) analyzing two wild type C. albicans strains because they behaved similarly in YEPD. It is remarkable that there was no effect against either the C. albicans, the S. cerevisiae, or the S. pombe wild-type strains, except with 30E.”

[7] = tested on: Candida albicans C. a.^f (Table 4); parameters: species or system yeast; tube dilution MIC in YEPD (± 1.2 M sorbitol), complete growth inhibition by turbidity; conditions: 48 h, read-out: MIC
Experimental: as §1, with “h. For inoculation of YEPD or YEPD+S macro test tubes a suspension of tested fungus was produced with 10^5 cfu/ml (cfu - colony forming unit). 10 μl of suspension was used for inoculation of each tube. After 48 h incubation at 30°C the tubes were checked. The MIC value is the lowest concentration of the tested compound that could inhibit the fungal growth and the medium remained clear. From each tube 10 μl culture was plated on YEPD agar medium to check the contamination. The MIC tests were carried out in three parallels.” for “h.”, “experiments.” for “experiments. Next, the first generation of isochromanones (1E-16E) was also screened in YES medium (Table 5) and exerted a weaker antifungal potency than in YEPD medium and also than the second family of isochromanones in YES medium (17E-30E) (Table 6). The strains are partly different from the previously mentioned ones (Tables 5, 6) analyzing two wild type C. albicans strains because they behaved similarly in YEPD. It is remarkable that there was no effect against either the C. albicans, the S. cerevisiae, or the S. pombe wild-type strains, except with 30E.”

[8] = tested on: Candida albicans C. a.^g (Table 4); parameters: species or system yeast; tube dilution MIC in YEPD (± 1.2 M sorbitol), complete growth inhibition by turbidity; conditions: 48 h, read-out: MIC
Experimental: as §1, with “h. For inoculation of YEPD or YEPD+S macro test tubes a suspension of tested fungus was produced with 10^5 cfu/ml (cfu - colony forming unit). 10 μl of suspension was used for inoculation of each tube. After 48 h incubation at 30°C the tubes were checked. The MIC value is the lowest concentration of the tested compound that could inhibit the fungal growth and the medium remained clear. From each tube 10 μl culture was plated on YEPD agar medium to check the contamination. The MIC tests were carried out in three parallels.” for “h.”, “experiments.” for “experiments. Next, the first generation of isochromanones (1E-16E) was also screened in YES medium (Table 5) and exerted a weaker antifungal potency than in YEPD medium and also than the second family of isochromanones in YES medium (17E-30E) (Table 6). The strains are partly different from the previously mentioned ones (Tables 5, 6) analyzing two wild type C. albicans strains because they behaved similarly in YEPD. It is remarkable that there was no effect against either the C. albicans, the S. cerevisiae, or the S. pombe wild-type strains, except with 30E.”

[9] = tested on: Candida albicans C. a.^h (Table 4); parameters: species or system yeast; tube dilution MIC in YEPD (± 1.2 M sorbitol), complete growth inhibition by turbidity; conditions: 48 h, read-out: MIC
Experimental: as §1, with “h. For inoculation of YEPD or YEPD+S macro test tubes a suspension of tested fungus was produced with 10^5 cfu/ml (cfu - colony forming unit). 10 μl of suspension was used for inoculation of each tube. After 48 h incubation at 30°C the tubes were checked. The MIC value is the lowest concentration of the tested compound that could inhibit the fungal growth and the medium remained clear. From each tube 10 μl culture was plated on YEPD agar medium to check the contamination. The MIC tests were carried out in three parallels.” for “h.”, “experiments.” for “experiments. Next, the first generation of isochromanones (1E-16E) was also screened in YES medium (Table 5) and exerted a weaker antifungal potency than in YEPD medium and also than the second family of isochromanones in YES medium (17E-30E) (Table 6). The strains are partly different from the previously mentioned ones (Tables 5, 6) analyzing two wild type C. albicans strains because they behaved similarly in YEPD. It is remarkable that there was no effect against either the C. albicans, the S. cerevisiae, or the S. pombe wild-type strains, except with 30E.”

[10] = tested on: T3, Saccharomyces cerevisiae S. c.^d (wild-type CVX12-3A); parameters: species or system yeast; tube dilution MIC in YEPD (± 1.2 M sorbitol), complete growth inhibition by turbidity; conditions: 48 h, read-out: MIC
Experimental: as §1, with “h. For inoculation of YEPD or YEPD+S macro test tubes a suspension of tested fungus was produced with 10^5 cfu/ml (cfu - colony forming unit). 10 μl of suspension was used for inoculation of each tube. After 48 h incubation at 30°C the tubes were checked. The MIC value is the lowest concentration of the tested compound that could inhibit the fungal growth and the medium remained clear. From each tube 10 μl culture was plated on YEPD agar medium to check the contamination. The MIC tests were carried out in three parallels.” for “h.”, “experiments.” for “experiments. Next, the first generation of isochromanones (1E-16E) was also screened in YES medium (Table 5) and exerted a weaker antifungal potency than in YEPD medium and also than the second family of isochromanones in YES medium (17E-30E) (Table 6). The strains are partly different from the previously mentioned ones (Tables 5, 6) analyzing two wild type C. albicans strains because they behaved similarly in YEPD. It is remarkable that there was no effect against either the C. albicans, the S. cerevisiae, or the S. pombe wild-type strains, except with 30E.”

[11] = tested on: T4, Schizosaccharomyces pombe S. p.^a (wild-type 972 h-); parameters: species or system yeast; tube dilution MIC in YEPD (± 1.2 M sorbitol), complete growth inhibition by turbidity; conditions: 48 h, read-out: MIC
Experimental: as §1, with “h. For inoculation of YEPD or YEPD+S macro test tubes a suspension of tested fungus was produced with 10^5 cfu/ml (cfu - colony forming unit). 10 μl of suspension was used for inoculation of each tube. After 48 h incubation at 30°C the tubes were checked. The MIC value is the lowest concentration of the tested compound that could inhibit the fungal growth and the medium remained clear. From each tube 10 μl culture was plated on YEPD agar medium to check the contamination. The MIC tests were carried out in three parallels.” for “h.”, “experiments.” for “experiments. Next, the first generation of isochromanones (1E-16E) was also screened in YES medium (Table 5) and exerted a weaker antifungal potency than in YEPD medium and also than the second family of isochromanones in YES medium (17E-30E) (Table 6). The strains are partly different from the previously mentioned ones (Tables 5, 6) analyzing two wild type C. albicans strains because they behaved similarly in YEPD. It is remarkable that there was no effect against either the C. albicans, the S. cerevisiae, or the S. pombe wild-type strains, except with 30E.”

Compound | MIC (C. albicans wild-type; C. albicans strain f) | MIC (C. albicans wild-type; C. albicans strain g) | MIC [1] | MIC [2] | MIC ([3]; YES + 1.2 M sorbitol) | MIC ([4]; YES + 1.2 M sorbitol) | MIC ([5]; YES + 1.2 M sorbitol) | MIC ([6]; YES + 1.2 M sorbitol) | MIC [7] | MIC [8] | MIC [9] | MIC [10] | MIC [11] | MIC ([3]; read-out: MIC) | MIC ([4]; read-out: MIC) | MIC ([5]; read-out: MIC) | MIC ([6]; read-out: MIC)
COc1ccc(/C=C2/C(=O)OCc3ccccc32)cc1 [21E] | > 200 µg/mL | > 200 µg/mL | > 200 µg/mL | > 200 µg/mL | > 200 µg/mL | > 200 µg/mL | > 200 µg/mL | > 200 µg/mL | – | – | – | – | – | – | – | – | –
C[C@@H]1[C@H](O)[C@@H](C)/C=C/C=C/C=C/C=C/C=C/C=C/C=C/[C@H](O[C@@H]2O[C@H](C)[C@@H](O)[C@H](N)[C@@H]2O)C[C@@H]2O[C@](O)(C[C@@H](O)C[C@@H](O)[C@H](O)CC[C@@H](O)C[C@@H](O)CC(=O)O[C@H]1C)C[C@H](O)[C@H]2C(=O)O [amphotericin B] | – | – | – | – | – | – | – | – | 0.4 µg/mL (≈ 0.433 µM) | 0.8 µg/mL (≈ 0.866 µM) | 0.4 µg/mL (≈ 0.433 µM) | 0.2 µg/mL (≈ 0.216 µM) | < 0.1 µg/mL | 0.8 µg/mL (≈ 0.866 µM) | 0.4 µg/mL (≈ 0.433 µM) | 0.2 µg/mL (≈ 0.216 µM) | < 0.1 µg/mL
O=C1OCc2ccccc2/C1=C/c1ccc([N+](=O)[O-])cc1 [17Z] | > 200 µg/mL | > 200 µg/mL | > 200 µg/mL | > 200 µg/mL | > 200 µg/mL | > 200 µg/mL | > 200 µg/mL | > 200 µg/mL | – | – | – | – | – | – | – | – | –
O=C1OCc2ccccc2/C1=C\c1ccc2c(c1)OCO2 [27E] | > 200 µg/mL | > 200 µg/mL | > 200 µg/mL | > 200 µg/mL | > 200 µg/mL | > 200 µg/mL | > 200 µg/mL | > 200 µg/mL | – | – | – | – | – | – | – | – | –
